Reference: paper PMC10122656, “Siglec-6 mediates the uptake of extracellular vesicles through a noncanonical glycolipid binding pocket” (Nature Communications, 2023)
Several values for one entry are separate records, joined by “and”; a condition that tells them apart may be missing. Identical values can stand only once. Values belong to the compound of their own block, whether it stands above or below them.

Columns and labels:
WT Siglec-6-Fc = target: T1, WT Siglec-6-Fc (Homo sapiens, UniProt O43699); experiment: Bead assay (Siglec-Fc on streptavidin microbeads, flow cytometry); assay type: binding
T1 construct: the Siglecs as Fc chimeras; made in house; host or cells: WT CHO cells
T1 sequence (O43699 27-347 limits assumed): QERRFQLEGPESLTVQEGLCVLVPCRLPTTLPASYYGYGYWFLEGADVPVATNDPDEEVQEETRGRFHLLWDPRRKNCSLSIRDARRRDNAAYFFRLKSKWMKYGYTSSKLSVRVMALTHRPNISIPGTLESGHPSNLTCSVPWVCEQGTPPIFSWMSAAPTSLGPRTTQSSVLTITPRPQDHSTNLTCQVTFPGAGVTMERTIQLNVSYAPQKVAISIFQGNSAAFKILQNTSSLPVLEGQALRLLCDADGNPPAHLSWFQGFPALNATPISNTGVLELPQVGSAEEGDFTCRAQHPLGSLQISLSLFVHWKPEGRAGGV
Experimental: (§1) Siglec-Fc constructs designed by Rodrigues et al.[30] were used in this work. Siglec-Fc constructs were expressed using WT CHO cells in cell culture media as described above with 1% HEPES. Cells incubated as described above for one-week post confluency. The supernatant was harvested and stored at 4 °C.
(§2) The purification was heavily inspired by Rodrigues et al.[30]. The purification of the Siglec-Fcs from supernatant began with Ni^2+ affinity chromatography using an AKTA FPLC equipped with a HisTrap Excel column (GE). The column was equilibrated with fifteen column volumes (CVs) of equilibrium buffer (500 mM NaCl, 20 mM NaPO4H2, pH 7.4). The Siglec-Fc containing supernatant was then loaded in its entirety onto the column. The column was then washed with fifteen CVs of wash buffer (500 mM NaCl, 30 mM imidazole, 20 mM NaPO4H2, pH 7.4). The Siglec-Fc was then eluted in 20 in 1 mL fractions with twenty CVs of elution buffer (500 mM NaCl, 500 mM imidazole, 20 mM NaPO4H2, pH 7.4). Fractions containing Siglec-Fc were compiled and then prepared for the next stage of purification by diluting the fractions 1:4 with buffer W (100 mM Tris–HCl, 150 mM NaCl, 1 mM EDTA, pH 8.0). A Strep-Tactin column (IBA life sciences) was washed with fifteen CVs of buffer W. The Siglec-Fc-buffer W solution was then loaded in its entirety onto the column. The bound Siglec-Fc was then washed with fifteen CVs of buffer W. Siglec-Fc was eluted from the column with 15 column volumes of buffer E (100 mM Tris–HCl, 150 mM NaCl, 1 mM EDTA, 10 mM d-Desthiobiotin, pH 8.0). Fractions containing Siglec-Fc were pooled and dialyzed against PBS to remove any d-Desthiobiotin. After dialysis, Siglec-Fcs were concentrated using an ultra-centrifugal device (30 kDa MWCO) and aliquoted into 5 µg aliquots, and frozen. The Siglec-Fcs were then lyophilized overnight, and the lyophilized Siglec-Fcs were stored at −20 °C.
(§3) Pierce^TM Streptavidin Magnetic Beads (Thermo Scientific) were blocked with 2% (m/V) BSA on ice for 1 h. Siglec-Fc in PBS was added then added to the bead solution such that the final concentration was 25 µg/mL. The Siglec-Fc was complexed to the beads for 1 h on ice. Excess Siglec-Fc was removed by washing the beads with 2% BSA solution and 50 µM liposome or 50 µg/mL (protein concentration) EV solution was then added to the beads. The beads were incubated with the liposomes/EVs for 30 min at 37 °C. The beads were then washed with 2% BSA solution and flow cytometry was used to measure the binding between the beads and the liposomes.

R92K Siglec-6-Fc = target: T2, R92K Siglec-6-Fc (Homo sapiens, UniProt O43699, R92K); experiment: as above; assay type: binding
T2 construct: the Siglecs as Fc chimeras; made in house; host or cells: WT CHO cells
T2 sequence (O43699 27-347 R92K limits assumed): as the sequence (O43699 27-347 limits assumed) above, with R66K counted along it
Experimental: as §1, §2, §3

[1] = target: T3, CHO cells expressing Siglec-6 mutants (C46A, C172A, R to A mutants, F93A, L95A, G175M) (Homo sapiens, UniProt O43699, R114A); experiment: Cell assay (liposome/EV binding, flow cytometry); assay type: cell-based; conditions: sheet Figure S26a, 3% GM3-DAG liposomes, R114A;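 further: AF647 fluorescence intensity from 0.1 mol% AF647–PEG45–DSPE in liposomes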
T3 construct: These new CHO cell lines are the full-length versions of the Siglecs; expressed in transfected cells
T3 sequence (O43699 27-453 R114A): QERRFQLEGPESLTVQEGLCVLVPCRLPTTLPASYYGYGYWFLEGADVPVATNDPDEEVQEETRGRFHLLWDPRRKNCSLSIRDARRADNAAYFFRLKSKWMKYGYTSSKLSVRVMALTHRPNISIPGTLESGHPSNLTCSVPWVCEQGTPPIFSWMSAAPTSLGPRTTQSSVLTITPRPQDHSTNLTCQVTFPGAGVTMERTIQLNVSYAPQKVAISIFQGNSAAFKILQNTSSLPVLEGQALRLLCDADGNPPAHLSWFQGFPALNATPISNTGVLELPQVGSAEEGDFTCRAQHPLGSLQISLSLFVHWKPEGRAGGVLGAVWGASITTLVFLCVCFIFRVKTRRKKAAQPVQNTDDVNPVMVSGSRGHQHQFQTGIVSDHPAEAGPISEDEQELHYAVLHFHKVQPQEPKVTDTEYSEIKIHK
Experimental: Mutations were introduced into each Siglec via gene overlap extension PCR mutagenesis (primers were ordered through IDT). Mutagenesis primers can be found in Supplementary Tables 2 and 3 for the critical arginine mutants of the entire Siglec family and the additional Siglec-6 mutants respectively.
(§4) 200,000 cells/well were plated into a 96-well U-bottom microplate and centrifuged at 300 × g for 5 min. The cells were then resuspended in 50 µL of 50 µM liposome/50 µg/mL (protein concentration) of EV solution in DMEM F12 5% FBS and incubated at 37 °C for 30 min. Excess liposomes were then removed via centrifuged at 300 × g for 5 min followed by washing the cells with FACS solution. The cells were then resuspended in (1:250 V/V) anti-Siglec-flow buffer (1% V/V FBS, 500 µM, EDTA Hank’s Balanced Salt Solution pH 7.4), solution and left to rest on ice for 30 min. The cells were then centrifuged again at 300 × g for 5 min and the cells were resuspended in FACS buffer solution and were then ready for analysis by flow cytometry. Information regarding antibody clone, catalog number supplier, label isotype, and dilution can be found in Supplementary Table 6. The Siglec-positive cells were gated on for liposome-binding analysis (Supplementary Fig. 1b).
(§5) Flow cytometry measurements were collected on a 5-laser Fortessa X-20 (BD Bioscience). All the resulting data were analyzed using FlowJo (10.5.3) software (BD Biosciences).

LAD2 cells = experiment: Liposome/EV binding to LAD2 cells by flow cytometry; assay type: cell-based, human
Experimental: as §4, §5
The LAD2 cell line (a gift from Arnold Kirshenbaum) was cultured in StemPro-34 SFM media (Life Technologies) supplemented with 2 mM L-glutamine, 100 U/ml penicillin, […] streptomycin, and 100 ng/ml recombinant human SCF (PeproTech, Rocky Hill, NJ). […]

[2] = tested on: CHO cells expressing Siglec-6/8 chimeras; experiment: Cell assay (liposome binding, flow cytometry); assay type: cell-based, human
Experimental: as §4, §5
The genes for the constructs containing each domain of Siglec-6 to the two others from Siglec-8 were synthesized by GeneArt and designed with a 5’ NheI and 3’ AgeI site immediately before the start codon and stop codon respectively. […]

WT Siglec-6 = WT Siglec-6 (Homo sapiens, UniProt O43699); experiment: Binding competition between GM1 GLLs and 5 nGLLs; conditions: 1 mol% GM1 liposomes
Chain of WT Siglec-6 (O43699 27-453): as the sequence (O43699 27-453 R114A) above, with A88R counted along it
Description: Supplementary Fig. 20: Binding competition between GM1 GLLs and 5 nGLLs against WT Siglec-6.
Binding of 1 mol% GM1 liposomes to WT Siglec-6 in the presence of an increasing concentration of 5 mol%
5 nGLLs. Data is presented with a representative flow cytometry histogram and was quantified as the mean
± one standard deviation of the median fluorescent intensity (MFI) from […] three technical replicates. A
Brown-Forsythe and Welch one-way ANOVA was used to compare the binding of liposomes formulated
(1 picture or pasted object on this page, not shown here)

[3] = tested on: Daudi cells transduced with an empty vector; experiment: pHrodo internalization assay by flow cytometry; assay type: cell-based, human; conditions: sheet Figure S42b

- liposome binding, fluorescence signal (replicates) (WT Siglec-6-Fc; sheet Figure S27, WT, assay format not given): 13816 and 10279 and 11696 and 11729
- liposome binding, fluorescence signal (replicates) (R92K Siglec-6-Fc; sheet Figure S27, R92K, assay format not given): 264 and 225 and 240 and 223
- liposome binding, fluorescence signal (replicates) [1]: 3286 and 2523 and 2193 and 4407
Compound: CCCCCCCCCCCCCCCCOCC(COCCCCCCCCCCCCCCCC)OCc1cn(CCO[C@@H]2O[C@H](CO)[C@@H](O[C@@H]3O[C@H](CO)[C@H](O)[C@H](O[C@]4(C(=O)O)C[C@H](O)[C@@H](NC(C)=O)[C@H]([C@H](O)[C@H](O)CO)O4)[C@H]3O)[C@H](O)[C@H]2O)nn1 [GM3-DAG]

- blocking of EV binding to Siglec-6 with 5 mol% 5 nGLLs (WT Siglec-6-Fc; bead assay): competed away binding of EVs
- binding of 5 nGLLs to R92K Siglec-6 Fc compared to WT Siglec-6 (R92K Siglec-6-Fc; bead assay): less than 5%
- binding of GM1 GLLs to WT Siglec-6 in presence of increasing concentration of 5 mol% 5 nGLLs (WT Siglec-6): decreased
Compound: CCCCCCCCCCCCCCCCOCC(COCCCCCCCCCCCCCCCC)OCc1cn(CCO[C@@H]2O[C@H](CO)[C@@H](O[C@@H]3O[C@H](CO)[C@H](O)[C@H](O[C@]4(C(=O)O)C[C@H](O)[C@@H](NC(C)=O)[C@H]([C@H](O)[C@H](O)CO)O4)[C@H]3O)[C@H](O)[C@H]2O)nn1 [nGL 5]
- 5 nGLL binding to LAD2 cells (LAD2 cells): bound robustly
- 5 nGLL binding to LAD2 cells after pre-incubation with a Siglec-6 antibody (LAD2 cells): abrogated
- 5 liposome binding to chimeras with one individual Siglec-6 domain [2]: none of the three individual Siglec-6 domains supported binding
- 5 nGLL binding to chimera with the first two domains of Siglec-6 [2]: significantly above background

Compound: GM3
- liposome internalization signal (replicates) ([3]; Emp-4 (empty vector, 4)): 6.1 and 7 and 8.7 and 6.3
- liposome internalization signal (replicates) ([3]; emp-37 (empty vector, 37)): 11.2 and 11.5 and 13.6 and 13.8
